Test results: PubChem BioAssay (NCI)
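Five compound concentrations were applied to cells in 96-well plates for 48 hours; endpoints were derived by simple linear interpolation of the resulting dose-response curve. Here, GI50 denotes the concentration required for 50% inhibition of growth. TGI: concentration producing complete growth inhibition.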

Experiments:
Assay in all cases: NCI-60 cell line screen, 48 h
786-0 renal = test system: 786-0 renal
A498 renal = test system: A498 renal
A549 NSCLC = test system: A549 NSCLC
ACHN renal = test system: ACHN renal
BT-549 breast = test system: BT-549 breast
CAKI-1 renal = test system: CAKI-1 renal
CCRF-CEM leukemia = test system: CCRF-CEM leukemia
COLO 205 colon = test system: COLO 205 colon
DU-145 prostate = test system: DU-145 prostate
EKVX NSCLC = test system: EKVX NSCLC
HCC-2998 colon = test system: HCC-2998 colon
HCT-116 colon = test system: HCT-116 colon
HCT-15 colon = test system: HCT-15 colon
HL-60(TB) leukemia = test system: HL-60(TB) leukemia
HOP-62 NSCLC = test system: HOP-62 NSCLC
HOP-92 NSCLC = test system: HOP-92 NSCLC
HS 578T breast = test system: HS 578T breast
HT29 colon = test system: HT29 colon
IGROV1 ovarian = test system: IGROV1 ovarian
K-562 leukemia = test system: K-562 leukemia
KM12 colon = test system: KM12 colon
LOX IMVI melanoma = test system: LOX IMVI melanoma
M14 melanoma = test system: M14 melanoma
MALME-3M melanoma = test system: MALME-3M melanoma
MCF7 breast = test system: MCF7 breast
MDA-MB-231 breast = test system: MDA-MB-231 breast
MDA-MB-435 = test system: MDA-MB-435
MDA-MB-468 breast = test system: MDA-MB-468 breast
MOLT-4 leukemia = test system: MOLT-4 leukemia
NCI-H226 lung = test system: NCI-H226 lung
NCI-H23 lung = test system: NCI-H23 lung
NCI-H460 lung = test system: NCI-H460 lung
NCI-H522 lung = test system: NCI-H522 lung
NCI/ADR-RES ovarian = test system: NCI/ADR-RES ovarian
OVCAR-3 ovarian = test system: OVCAR-3 ovarian
OVCAR-4 ovarian = test system: OVCAR-4 ovarian
OVCAR-5 ovarian = test system: OVCAR-5 ovarian
OVCAR-8 ovarian = test system: OVCAR-8 ovarian
PC-3 prostate = test system: PC-3 prostate
RPMI-8226 leukemia = test system: RPMI-8226 leukemia
RXF 393 renal = test system: RXF 393 renal
SF-268 CNS = test system: SF-268 CNS
SF-295 CNS = test system: SF-295 CNS
SF-539 CNS = test system: SF-539 CNS
SK-MEL-2 melanoma = test system: SK-MEL-2 melanoma
SK-MEL-28 melanoma = test system: SK-MEL-28 melanoma
SK-MEL-5 melanoma = test system: SK-MEL-5 melanoma
SK-OV-3 ovarian = test system: SK-OV-3 ovarian
SN12C renal = test system: SN12C renal
SNB-19 CNS = test system: SNB-19 CNS
SNB-75 CNS = test system: SNB-75 CNS
SR leukemia = test system: SR leukemia
SW-620 colon = test system: SW-620 colon
T-47D breast = test system: T-47D breast
TK-10 renal = test system: TK-10 renal
U251 CNS = test system: U251 CNS
UACC-257 melanoma = test system: UACC-257 melanoma
UACC-62 melanoma = test system: UACC-62 melanoma
UO-31 renal = test system: UO-31 renal

O=C(COc1ccc(NC(=O)Nc2ccc(Cl)cc2)cc1)N=Nc1c(O)[nH]c2ccc([N+](=O)[O-])cc12
GI50 (786-0 renal): 15.6 µM | TGI (786-0 renal): 34.6 µM | GI50 (A498 renal): 21.1 µM | TGI (A498 renal): 43.2 µM | GI50 (A549 NSCLC): > 100 µM | TGI (A549 NSCLC): > 100 µM | GI50 (ACHN renal): 26.8 µM | TGI (ACHN renal): > 100 µM | GI50 (BT-549 breast): 14.2 µM | TGI (BT-549 breast): 29.8 µM | GI50 (CAKI-1 renal): 69.7 µM | TGI (CAKI-1 renal): > 100 µM | GI50 (CCRF-CEM leukemia): 2.56 µM | TGI (CCRF-CEM leukemia): 8.18 µM | GI50 (COLO 205 colon): 5.21 µM | TGI (COLO 205 colon): > 100 µM | GI50 (DU-145 prostate): 10.3 µM | TGI (DU-145 prostate): > 100 µM | GI50 (EKVX NSCLC): 22.3 µM | TGI (EKVX NSCLC): > 100 µM | GI50 (HCC-2998 colon): 6.18 µM | TGI (HCC-2998 colon): > 100 µM | GI50 (HCT-116 colon): 3.65 µM | TGI (HCT-116 colon): 13.6 µM | GI50 (HCT-15 colon): > 100 µM | TGI (HCT-15 colon): > 100 µM | GI50 (HL-60(TB) leukemia): > 100 µM | TGI (HL-60(TB) leukemia): > 100 µM | GI50 (HOP-62 NSCLC): 14.3 µM | TGI (HOP-62 NSCLC): 30.6 µM | GI50 (HOP-92 NSCLC): 3.01 µM | TGI (HOP-92 NSCLC): 12.4 µM | GI50 (HS 578T breast): 2.96 µM | TGI (HS 578T breast): 15.8 µM | GI50 (HT29 colon): 6.81 µM | TGI (HT29 colon): > 100 µM | GI50 (IGROV1 ovarian): 13.6 µM | TGI (IGROV1 ovarian): 30.7 µM | GI50 (K-562 leukemia): 8.47 µM | TGI (K-562 leukemia): > 100 µM | GI50 (KM12 colon): 1.95 µM | TGI (KM12 colon): 11 µM | GI50 (LOX IMVI melanoma): 3.21 µM | TGI (LOX IMVI melanoma): 11.5 µM | GI50 (M14 melanoma): 5.83 µM | TGI (M14 melanoma): > 100 µM | GI50 (MALME-3M melanoma): 2.6 µM | TGI (MALME-3M melanoma): 8.74 µM | GI50 (MCF7 breast): 2.06 µM | TGI (MCF7 breast): 6.36 µM | GI50 (MDA-MB-231 breast): 2.84 µM | TGI (MDA-MB-231 breast): 9.44 µM | GI50 (MDA-MB-435): 3.7 µM | TGI (MDA-MB-435): 20.5 µM | GI50 (MDA-MB-468 breast): 1.98 µM | TGI (MDA-MB-468 breast): 4.82 µM | GI50 (MOLT-4 leukemia): 5.25 µM | TGI (MOLT-4 leukemia): > 100 µM | GI50 (NCI-H226 lung): 4.12 µM | TGI (NCI-H226 lung): 24.2 µM | GI50 (NCI-H23 lung): 5.79 µM | TGI (NCI-H23 lung): 18.3 µM | GI50 (NCI-H460 lung): 3.07 µM | TGI (NCI-H460 lung): 33.9 µM | GI50 (NCI-H522 lung): 2.4 µM | TGI (NCI-H522 lung): 8.03 µM | GI50 (NCI/ADR-RES ovarian): > 100 µM | TGI (NCI/ADR-RES ovarian): > 100 µM | GI50 (OVCAR-3 ovarian): 2.25 µM | TGI (OVCAR-3 ovarian): 6.58 µM | GI50 (OVCAR-4 ovarian): 3.95 µM | TGI (OVCAR-4 ovarian): 24.8 µM | GI50 (OVCAR-5 ovarian): 24 µM | TGI (OVCAR-5 ovarian): > 100 µM | GI50 (OVCAR-8 ovarian): 12.7 µM | TGI (OVCAR-8 ovarian): > 100 µM | GI50 (PC-3 prostate): 6.59 µM | TGI (PC-3 prostate): > 100 µM | GI50 (RPMI-8226 leukemia): 7.3 µM | TGI (RPMI-8226 leukemia): > 100 µM | GI50 (RXF 393 renal): 5.69 µM | TGI (RXF 393 renal): 26.8 µM | GI50 (SF-268 CNS): 4.81 µM | TGI (SF-268 CNS): 18.7 µM | GI50 (SF-295 CNS): 16.5 µM | TGI (SF-295 CNS): 34 µM | GI50 (SF-539 CNS): 3.36 µM | TGI (SF-539 CNS): 15.3 µM | GI50 (SK-MEL-2 melanoma): 7.09 µM | TGI (SK-MEL-2 melanoma): 20.3 µM | GI50 (SK-MEL-28 melanoma): 2.49 µM | TGI (SK-MEL-28 melanoma): 7.97 µM | GI50 (SK-MEL-5 melanoma): 12.4 µM | TGI (SK-MEL-5 melanoma): > 100 µM | GI50 (SK-OV-3 ovarian): 21.6 µM | TGI (SK-OV-3 ovarian): 55.8 µM | GI50 (SN12C renal): 4.74 µM | TGI (SN12C renal): 23.9 µM | GI50 (SNB-19 CNS): 10.1 µM | TGI (SNB-19 CNS): 23.6 µM | GI50 (SNB-75 CNS): 4.82 µM | TGI (SNB-75 CNS): 24.2 µM | GI50 (SR leukemia): 18 µM | TGI (SR leukemia): > 100 µM | GI50 (SW-620 colon): 3.34 µM | TGI (SW-620 colon): > 100 µM | GI50 (T-47D breast): 4 µM | TGI (T-47D breast): 30.2 µM | GI50 (TK-10 renal): 23.7 µM | TGI (TK-10 renal): 59.7 µM | GI50 (U251 CNS): 6.42 µM | TGI (U251 CNS): 19.6 µM | GI50 (UACC-257 melanoma): 20.1 µM | TGI (UACC-257 melanoma): > 100 µM | GI50 (UACC-62 melanoma): 6.99 µM | TGI (UACC-62 melanoma): 26.6 µM | GI50 (UO-31 renal): > 100 µM | TGI (UO-31 renal): > 100 µM
